{"source": "patent US4148896A", "about": "“Antidepressant combination” (E. I. Du Pont de Nemours and Company, priority 1978, dated 1979)", "key": {"[1]": {"system": "tryptamine-induced stereotypies and hind limb paralysis", "assay": "Tryptamine potentiation test", "type": "in vivo, mice", "settings": "oral", "method": "[…] […] (60 Mg/kg of tryptamine alone causes this syndrome but it lasts for less than a minute, usually only a few seconds.) The data were analyzed quantally and ED50's calculated."}, "[2]": {"target": "T1, mouse brain MAO (Mus musculus, UniProt Q64133)", "T1 sequence (Q64133 1-526)": "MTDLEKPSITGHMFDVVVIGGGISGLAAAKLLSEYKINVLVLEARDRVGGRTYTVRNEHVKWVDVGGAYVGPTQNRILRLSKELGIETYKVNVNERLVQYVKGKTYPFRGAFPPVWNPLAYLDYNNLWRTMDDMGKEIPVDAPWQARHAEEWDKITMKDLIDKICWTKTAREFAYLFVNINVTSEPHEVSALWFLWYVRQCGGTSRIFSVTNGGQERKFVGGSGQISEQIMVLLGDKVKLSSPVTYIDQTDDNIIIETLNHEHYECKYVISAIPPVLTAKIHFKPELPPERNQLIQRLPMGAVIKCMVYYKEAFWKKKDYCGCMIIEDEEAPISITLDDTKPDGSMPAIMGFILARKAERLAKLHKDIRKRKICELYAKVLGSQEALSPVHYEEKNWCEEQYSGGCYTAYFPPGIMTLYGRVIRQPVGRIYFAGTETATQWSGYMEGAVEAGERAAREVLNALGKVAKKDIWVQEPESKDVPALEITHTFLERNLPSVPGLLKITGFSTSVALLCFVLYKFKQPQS", "settings": "for % INHIBITION: substrate 5 HT"}, "[3]": {"assay": "in vivo", "settings": "mouse, po"}, "[4]": {"target": "T1, mouse brain MAO", "assay": "biochemical"}, "[5]": {"system": "tetrabenazine-induced sedation", "assay": "Mouse antidepressant (antitetrabenazine) test: prevention of tetrabenazine-induced ptosis and loss of exploratory activity", "settings": "for ED50: Mus musculus, po; for No. of Mice Blocked, EXPLORATORY ACTIVITY / No. of Mice Blocked, PTOSIS: 4 h after molindone"}, "[6]": {"settings": "1 mg/kg oral (free base), 1 h, N=10"}, "[7]": {"settings": "1 mg/kg oral (free base), 2 h, N=10"}, "[8]": {"settings": "1 mg/kg oral (free base), 4 h, N=10"}, "[9]": {"settings": "3 mg/kg oral (free base), 1 h, N=10"}, "[10]": {"settings": "3 mg/kg oral (free base), 2 h, N=10"}, "[11]": {"settings": "3 mg/kg oral (free base), 4 h, N=10"}, "[12]": {"settings": "9 mg/kg oral (free base), 1 h, N=10"}, "[13]": {"settings": "9 mg/kg oral (free base), 2 h, N=10"}, "[14]": {"settings": "9 mg/kg oral (free base), 4 h, N=10"}, "[15]": {"settings": "13 mg/kg oral (free base), 1 h, N=20"}, "[16]": {"settings": "13 mg/kg oral (free base), 2 h, N=20"}, "[17]": {"settings": "13 mg/kg oral (free base), 3 h, N=20"}, "[18]": {"settings": "13 mg/kg oral (free base), 4 h, N=20"}, "[19]": {"settings": "13 mg/kg oral (free base), 6 h, N=20"}, "[20]": {"settings": "13 mg/kg oral (free base), 24 h, N=20"}, "[21]": {"settings": "27 mg/kg oral (free base), 1 h, N=10"}, "[22]": {"settings": "27 mg/kg oral (free base), 2 h, N=10"}, "[23]": {"settings": "27 mg/kg oral (free base), 4 h, N=10"}, "[24]": {"settings": "81 mg/kg oral (free base), 1 h, N=10"}, "[25]": {"settings": "81 mg/kg oral (free base), 2 h, N=10"}, "[26]": {"settings": "81 mg/kg oral (free base), 4 h, N=10"}, "[27]": {"settings": "molindone 1.5 mg/kg oral alone, N=20"}, "[28]": {"settings": "molindone 4.5 mg/kg oral alone, N=20"}, "[29]": {"settings": "molindone 13.5 mg/kg oral alone, N=20"}, "[30]": {"settings": "molindone 40.5 mg/kg oral alone, N=20"}, "[31]": {"settings": "molindone alone, oral, 4 h, free base basis, N=20 (Table 2)"}}, "note": "Like-named read-outs stand apart in the source and are kept apart here.", "data": [{"smiles": "CCc1c(C)[nH]c2c1C(=O)C(CN1CCOCC1)CC2", "note": "(centres unmarked) [Molindone, 3-ethyl-6,7-dihydro-2-methyl-5-(morpholinomethyl)indol-4-(5H)-one]", "values": [{"measurement": "peak time, hind limb paralysis", "setting": "[1]; tryptamine potentiation", "value": 4, "unit": "h"}, {"measurement": "Effect on the action of tryptamine", "setting": "[1]; at higher doses the potentiation disappears", "value": "potentiates the action of tryptamine in a dose-related manner"}, {"measurement": "MAO inhibition (in words)", "setting": "[2]; at the high concentration of 1×10^-3 M", "value": "virtually inactive"}, {"measurement": "% INHIBITION", "setting": "[2]; final conc. 10^-3 m/l", "value": 14, "unit": "%"}, {"measurement": "% INHIBITION", "setting": "[2]; final conc. 10^-4 m/l", "value": 1, "unit": "%"}, {"measurement": "% INHIBITION", "setting": "[2]; final conc. 10^-5 m/l", "value": 1, "unit": "%"}, {"measurement": "% INHIBITION", "setting": "[2]; final conc. 10^-6 m/l", "value": 0, "unit": "%"}, {"measurement": "LD50 at 24 h", "setting": "[3]", "value": 440, "unit": "mg/kg"}, {"measurement": "IC50", "setting": "[4]", "value": "> 1000", "unit": "µM"}, {"measurement": "NUMBER OF MICE BLOCKED, EXPLORATORY ACTIVITY", "setting": "[5]; [6]", "value": 0}, {"measurement": "NUMBER OF MICE BLOCKED, PTOSIS", "setting": "[5]; [6]", "value": 0}, {"measurement": "NUMBER OF MICE BLOCKED, EXPLORATORY ACTIVITY", "setting": "[5]; [7]", "value": 0}, {"measurement": "NUMBER OF MICE BLOCKED, PTOSIS", "setting": "[5]; [7]", "value": 0}, {"measurement": "NUMBER OF MICE BLOCKED, EXPLORATORY ACTIVITY", "setting": "[5]; [8]", "value": 0}, {"measurement": "NUMBER OF MICE BLOCKED, PTOSIS", "setting": "[5]; [8]", "value": 0}, {"measurement": "NUMBER OF MICE BLOCKED, EXPLORATORY ACTIVITY", "setting": "[5]; [9]", "value": 0}, {"measurement": "NUMBER OF MICE BLOCKED, PTOSIS", "setting": "[5]; [9]", "value": 0}, {"measurement": "NUMBER OF MICE BLOCKED, EXPLORATORY ACTIVITY", "setting": "[5]; [10]", "value": 0}, {"measurement": "NUMBER OF MICE BLOCKED, PTOSIS", "setting": "[5]; [10]", "value": 1}, {"measurement": "NUMBER OF MICE BLOCKED, EXPLORATORY ACTIVITY", "setting": "[5]; [11]", "value": 0}, {"measurement": "NUMBER OF MICE BLOCKED, PTOSIS", "setting": "[5]; [11]", "value": 0}, {"measurement": "NUMBER OF MICE BLOCKED, EXPLORATORY ACTIVITY", "setting": "[5]; [12]", "value": 0}, {"measurement": "NUMBER OF MICE BLOCKED, PTOSIS", "setting": "[5]; [12]", "value": 0}, {"measurement": "NUMBER OF MICE BLOCKED, EXPLORATORY ACTIVITY", "setting": "[5]; [13]", "value": 3}, {"measurement": "NUMBER OF MICE BLOCKED, PTOSIS", "setting": "[5]; [13]", "value": 5}, {"measurement": "NUMBER OF MICE BLOCKED, EXPLORATORY ACTIVITY", "setting": "[5]; [14]", "value": 5}, {"measurement": "NUMBER OF MICE BLOCKED, PTOSIS", "setting": "[5]; [14]", "value": 7}, {"measurement": "NUMBER OF MICE BLOCKED, EXPLORATORY ACTIVITY", "setting": "[5]; [15]", "value": 0}, {"measurement": "NUMBER OF MICE BLOCKED, PTOSIS", "setting": "[5]; [15]", "value": 0}, {"measurement": "NUMBER OF MICE BLOCKED, EXPLORATORY ACTIVITY", "setting": "[5]; [16]", "value": 6}, {"measurement": "NUMBER OF MICE BLOCKED, PTOSIS", "setting": "[5]; [16]", "value": 8}, {"measurement": "NUMBER OF MICE BLOCKED, EXPLORATORY ACTIVITY", "setting": "[5]; [17]", "value": 16}, {"measurement": "NUMBER OF MICE BLOCKED, PTOSIS", "setting": "[5]; [17]", "value": 19}, {"measurement": "NUMBER OF MICE BLOCKED, EXPLORATORY ACTIVITY", "setting": "[5]; [18]", "value": 19}, {"measurement": "NUMBER OF MICE BLOCKED, PTOSIS", "setting": "[5]; [18]", "value": 20}, {"measurement": "NUMBER OF MICE BLOCKED, EXPLORATORY ACTIVITY", "setting": "[5]; [19]", "value": 20}, {"measurement": "NUMBER OF MICE BLOCKED, PTOSIS", "setting": "[5]; [19]", "value": 20}, {"measurement": "NUMBER OF MICE BLOCKED, EXPLORATORY ACTIVITY", "setting": "[5]; [20]", "value": 6}, {"measurement": "NUMBER OF MICE BLOCKED, PTOSIS", "setting": "[5]; [20]", "value": 10}, {"measurement": "NUMBER OF MICE BLOCKED, EXPLORATORY ACTIVITY", "setting": "[5]; [21]", "value": 0}, {"measurement": "NUMBER OF MICE BLOCKED, PTOSIS", "setting": "[5]; [21]", "value": 0}, {"measurement": "NUMBER OF MICE BLOCKED, EXPLORATORY ACTIVITY", "setting": "[5]; [22]", "value": 10}, {"measurement": "NUMBER OF MICE BLOCKED, PTOSIS", "setting": "[5]; [22]", "value": 10}, {"measurement": "NUMBER OF MICE BLOCKED, EXPLORATORY ACTIVITY", "setting": "[5]; [23]", "value": 10}, {"measurement": "NUMBER OF MICE BLOCKED, PTOSIS", "setting": "[5]; [23]", "value": 10}, {"measurement": "NUMBER OF MICE BLOCKED, EXPLORATORY ACTIVITY", "setting": "[5]; [24]", "value": 0}, {"measurement": "NUMBER OF MICE BLOCKED, PTOSIS", "setting": "[5]; [24]", "value": 0}, {"measurement": "NUMBER OF MICE BLOCKED, EXPLORATORY ACTIVITY", "setting": "[5]; [25]", "value": 10}, {"measurement": "NUMBER OF MICE BLOCKED, PTOSIS", "setting": "[5]; [25]", "value": 10}, {"measurement": "NUMBER OF MICE BLOCKED, EXPLORATORY ACTIVITY", "setting": "[5]; [26]", "value": 10}, {"measurement": "NUMBER OF MICE BLOCKED, PTOSIS", "setting": "[5]; [26]", "value": 10}, {"measurement": "ED50", "setting": "[5]; 1 h, read-out: ED50, EXPLORATORY ACTIVITY", "value": "> 81", "unit": "mg/kg"}, {"measurement": "ED50", "setting": "[5]; 1 h, read-out: ED50, PTOSIS", "value": "> 81", "unit": "mg/kg"}, {"measurement": "ED50", "setting": "[5]; 2 h, read-out: ED50, EXPLORATORY ACTIVITY", "value": 11.2, "unit": "mg/kg"}, {"measurement": "ED50", "setting": "[5]; 2 h, read-out: ED50, PTOSIS", "value": 8.5, "unit": "mg/kg"}, {"measurement": "ED50", "setting": "[5]; 4 h, read-out: ED50, EXPLORATORY ACTIVITY", "value": 9, "unit": "mg/kg"}, {"measurement": "ED50", "setting": "[5]; 4 h, read-out: ED50, PTOSIS", "value": 7.2, "unit": "mg/kg"}, {"measurement": "No. of Mice Blocked, EXPLORATORY ACTIVITY", "setting": "[5]; [27]", "value": 0}, {"measurement": "No. of Mice Blocked, PTOSIS", "setting": "[5]; [27]", "value": 1}, {"measurement": "No. of Mice Blocked, EXPLORATORY ACTIVITY", "setting": "[5]; [28]", "value": 2}, {"measurement": "No. of Mice Blocked, PTOSIS", "setting": "[5]; [28]", "value": 5}, {"measurement": "No. of Mice Blocked, EXPLORATORY ACTIVITY", "setting": "[5]; [29]", "value": 12}, {"measurement": "No. of Mice Blocked, PTOSIS", "setting": "[5]; [29]", "value": 18}, {"measurement": "No. of Mice Blocked, EXPLORATORY ACTIVITY", "setting": "[5]; [30]", "value": 20}, {"measurement": "No. of Mice Blocked, PTOSIS", "setting": "[5]; [30]", "value": 20}, {"measurement": "ED50, EXPLORATORY ACTIVITY, Molindone", "setting": "[5]; [31]", "value": 10.8, "unit": "mg/kg"}, {"measurement": "ED50, PTOSIS, Molindone", "setting": "[5]; [31]", "value": 6.4, "unit": "mg/kg"}, {"measurement": "Peak time (antitetrabenazine activity)", "setting": "[5]; oral, mice", "value": "4 to 6", "unit": "h"}]}]}
